Organism: Rattus norvegicus
Experiment: Open TG-GATES - Regimen: Single
Format: toxicity, organism-based, Sprague-Dawley
Parameters: regimen Single, gender Male, age 6 weeks
Conditions: in vivo, po, 0 mg/kg, route gavage, dose level Control; for APTT / Bas / Eos / Fbg / Hb / Ht / Lym / MCH / MCHC / MCV / Mono / Neu / PT / Plat / RBC / Ret / WBC: tissue Blood; for KIDNEY_L / KIDNEY_R / KIDNEY_TOTAL: tissue Kidney; for LIVER: tissue Liver; for A/G / ALP / ALT / AST / BUN / CRE / Ca / Cl / DBIL / GLC / IP / K / LDH / Na / PL / RALB / TBIL / TC / TG / TP / gamma-GTP: tissue Plasma

SMILES: CCN1CCCC1CNC(=O)c1cc(S(N)(=O)=O)ccc1OC (configuration not stated) [SULPIRIDE]
- TERMINAL_BW (3 h): 201.8 g
- APTT (3 h): 17.6 s
- Bas (3 h): 0%
- Eos (3 h): 0.6%
- Fbg (3 h): 247.8 mg/dL
- Hb (3 h): 13.4 g/dL
- Ht (3 h): 41.4%
- Lym (3 h): 80.2%
- MCH (3 h): 20.9 pg
- MCHC (3 h): 32.3%
- MCV (3 h): 64.8 fL
- Mono (3 h): 2.4%
- Neu (3 h): 16%
- PT (3 h): 14.1 s
- Plat (3 h): 117.7 x10_4/uL
- RBC (3 h): 639.8 x10_4/ul
- Ret (3 h): 7.5%
- WBC (3 h): 81.5 x10_2/uL
- KIDNEY_L (3 h): 0.9 g
- KIDNEY_R (3 h): 0.9 g
- KIDNEY_TOTAL (3 h): 1.9 g
- LIVER (3 h): 8.6 g
- A/G (3 h): 0.9
- ALP (3 h): 1902.2 IU/L
- ALT (3 h): 49 IU/L
- AST (3 h): 92.6 IU/L
- BUN (3 h): 10.6 mg/dL
- CRE (3 h): 0.2 mg/dL
- Ca (3 h): 11 mg/dL
- Cl (3 h): 105.8 meq/L
- DBIL (3 h): 0.01 mg/dL
- GLC (3 h): 177 mg/dL
- IP (3 h): 8.9 mg/dL
- K (3 h): 4.5 meq/L
- LDH (3 h): 173.6 IU/L
- Na (3 h): 140.8 meq/L
- PL (3 h): 116 mg/dL
- RALB (3 h): 2.4 g/dL
- TBIL (3 h): 0.074 mg/dL
- TC (3 h): 60.8 mg/dL
- TG (3 h): 50.2 mg/dL
- TP (3 h): 5.1 g/dL
- gamma-GTP (3 h): 1.6 IU/L
- TERMINAL_BW (6 h): 198.5 g
- APTT (6 h): 17.4 s
- Bas (6 h): 0.2%
- Eos (6 h): 0.8%
- Fbg (6 h): 276.2 mg/dL
- Hb (6 h): 13.3 g/dL
- Ht (6 h): 41.6%
- Lym (6 h): 79.4%
- MCH (6 h): 20.5 pg
- MCHC (6 h): 32%
- MCV (6 h): 64.1 fL
- Mono (6 h): 2.4%
- Neu (6 h): 16.4%
- PT (6 h): 13.5 s
- Plat (6 h): 123.5 x10_4/uL
- RBC (6 h): 649.6 x10_4/ul
- Ret (6 h): 8%
- WBC (6 h): 87.4 x10_2/uL
- KIDNEY_L (6 h): 0.9 g
- KIDNEY_R (6 h): 0.9 g
- KIDNEY_TOTAL (6 h): 1.8 g
- LIVER (6 h): 8.6 g
- A/G (6 h): 0.9
- ALP (6 h): 1354.6 IU/L
- ALT (6 h): 38.2 IU/L
- AST (6 h): 78 IU/L
- BUN (6 h): 9 mg/dL
- CRE (6 h): 0.2 mg/dL
- Ca (6 h): 10.7 mg/dL
- Cl (6 h): 105 meq/L
- DBIL (6 h): 0.01 mg/dL
- GLC (6 h): 192.2 mg/dL
- IP (6 h): 9.3 mg/dL
- K (6 h): 4.3 meq/L
- LDH (6 h): 105 IU/L
- Na (6 h): 141.2 meq/L
- PL (6 h): 128.6 mg/dL
- RALB (6 h): 2.5 g/dL
- TBIL (6 h): 0.072 mg/dL
- TC (6 h): 72.2 mg/dL
- TG (6 h): 53 mg/dL
- TP (6 h): 5.2 g/dL
- gamma-GTP (6 h): 1.8 IU/L
- TERMINAL_BW (9 h): 200.2 g
- APTT (9 h): 16.9 s
- Bas (9 h): 0.2%
- Eos (9 h): 1%
- Fbg (9 h): 302.8 mg/dL
- Hb (9 h): 13.3 g/dL
- Ht (9 h): 41.6%
- Lym (9 h): 74.2%
- MCH (9 h): 19.8 pg
- MCHC (9 h): 32%
- MCV (9 h): 62 fL
- Mono (9 h): 2.6%
- Neu (9 h): 21.6%
- PT (9 h): 13.5 s
- Plat (9 h): 126.7 x10_4/uL
- RBC (9 h): 670.8 x10_4/ul
- Ret (9 h): 7.8%
- WBC (9 h): 76.7 x10_2/uL
- KIDNEY_L (9 h): 0.9 g
- KIDNEY_R (9 h): 0.9 g
- KIDNEY_TOTAL (9 h): 1.8 g
- LIVER (9 h): 8.1 g
- A/G (9 h): 0.9
- ALP (9 h): 1441.6 IU/L
- ALT (9 h): 69 IU/L
- AST (9 h): 70.4 IU/L
- BUN (9 h): 7.6 mg/dL
- CRE (9 h): 0.2 mg/dL
- Ca (9 h): 10.7 mg/dL
- Cl (9 h): 105.4 meq/L
- DBIL (9 h): 0.006 mg/dL
- GLC (9 h): 170.8 mg/dL
- IP (9 h): 9.8 mg/dL
- K (9 h): 3.9 meq/L
- LDH (9 h): 132.4 IU/L
- Na (9 h): 141.4 meq/L
- PL (9 h): 125 mg/dL
- RALB (9 h): 2.5 g/dL
- TBIL (9 h): 0.074 mg/dL
- TC (9 h): 70.8 mg/dL
- TG (9 h): 61 mg/dL
- TP (9 h): 5.3 g/dL
- gamma-GTP (9 h): 1.4 IU/L
- TERMINAL_BW (24 h): 216.8 g
- APTT (24 h): 17.3 s
- Bas (24 h): 0.4%
- Eos (24 h): 1%
- Fbg (24 h): 278 mg/dL
- Hb (24 h): 13.3 g/dL
- Ht (24 h): 41.1%
- Lym (24 h): 76.4%
- MCH (24 h): 20.7 pg
- MCHC (24 h): 32.4%
- MCV (24 h): 63.9 fL
- Mono (24 h): 3.2%
- Neu (24 h): 18.4%
- PT (24 h): 13.1 s
- Plat (24 h): 127.4 x10_4/uL
- RBC (24 h): 642.4 x10_4/ul
- Ret (24 h): 7.4%
- WBC (24 h): 96.8 x10_2/uL
- KIDNEY_L (24 h): 0.9 g
- KIDNEY_R (24 h): 0.9 g
- KIDNEY_TOTAL (24 h): 1.8 g
- LIVER (24 h): 9.8 g
- A/G (24 h): 0.9
- ALP (24 h): 1626.2 IU/L
- ALT (24 h): 39.6 IU/L
- AST (24 h): 77.2 IU/L
- BUN (24 h): 14.6 mg/dL
- CRE (24 h): 0.2 mg/dL
- Ca (24 h): 10.9 mg/dL
- Cl (24 h): 106.4 meq/L
- DBIL (24 h): 0.012 mg/dL
- GLC (24 h): 186.2 mg/dL
- IP (24 h): 7.5 mg/dL
- K (24 h): 4.2 meq/L
- LDH (24 h): 98.2 IU/L
- Na (24 h): 141.6 meq/L
- PL (24 h): 140 mg/dL
- RALB (24 h): 2.5 g/dL
- TBIL (24 h): 0.058 mg/dL
- TC (24 h): 74 mg/dL
- TG (24 h): 96.8 mg/dL
- TP (24 h): 5.4 g/dL
- gamma-GTP (24 h): 1 IU/L

— ChEMBL document CHEMBL3885861, “Open TG-GATES”
